Test [1] has as its target T1, Oxytocin receptor (Homo sapiens, UniProt P30559).
T1 sequence (P30559 whole entry): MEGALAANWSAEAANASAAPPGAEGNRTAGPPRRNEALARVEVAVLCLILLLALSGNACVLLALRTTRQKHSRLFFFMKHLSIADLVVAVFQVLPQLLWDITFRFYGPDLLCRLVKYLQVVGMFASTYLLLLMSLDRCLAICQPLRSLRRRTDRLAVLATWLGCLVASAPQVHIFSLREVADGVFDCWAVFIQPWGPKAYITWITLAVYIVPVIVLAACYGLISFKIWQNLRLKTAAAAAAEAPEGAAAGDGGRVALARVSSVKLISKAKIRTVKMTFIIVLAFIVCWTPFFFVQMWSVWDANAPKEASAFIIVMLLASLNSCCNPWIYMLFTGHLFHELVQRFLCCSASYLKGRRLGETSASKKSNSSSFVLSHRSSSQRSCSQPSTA
The test can be described thus: Agonist activity at human OTR expressed in CHO cells assessed as calcium mobilization measured after 30 mins by Fluo-4-AM dye based FLIPR assay. The class given is functional, cell-based. (Calcium flux is commonly read through the fluorescence of an indicator in the cells.)

Test [2] deals with Vasopressin V1a receptor (Homo sapiens, UniProt P37288). The test can be described thus: Agonist activity at human V1a receptor expressed in CHO cells assessed as calcium mobilization measured after 30 mins by Fluo-4-AM dye based FLIPR assay. The class given is cell-based.
Chain of Vasopressin V1a receptor (P37288 whole entry): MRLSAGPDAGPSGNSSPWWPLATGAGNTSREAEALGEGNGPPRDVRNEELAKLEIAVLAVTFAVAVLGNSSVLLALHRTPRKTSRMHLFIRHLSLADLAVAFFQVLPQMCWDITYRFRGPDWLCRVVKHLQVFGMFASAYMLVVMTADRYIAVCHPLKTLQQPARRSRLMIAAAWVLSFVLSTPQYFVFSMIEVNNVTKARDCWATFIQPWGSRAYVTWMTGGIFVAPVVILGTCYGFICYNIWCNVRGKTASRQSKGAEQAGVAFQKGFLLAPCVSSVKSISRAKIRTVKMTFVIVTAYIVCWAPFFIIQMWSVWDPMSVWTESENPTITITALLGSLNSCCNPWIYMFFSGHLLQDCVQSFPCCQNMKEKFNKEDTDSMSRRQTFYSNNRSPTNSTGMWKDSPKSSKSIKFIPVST
In test [3] the target is T2, Vasopressin V1b receptor (Homo sapiens, UniProt P47901).
T2 sequence (P47901 whole entry): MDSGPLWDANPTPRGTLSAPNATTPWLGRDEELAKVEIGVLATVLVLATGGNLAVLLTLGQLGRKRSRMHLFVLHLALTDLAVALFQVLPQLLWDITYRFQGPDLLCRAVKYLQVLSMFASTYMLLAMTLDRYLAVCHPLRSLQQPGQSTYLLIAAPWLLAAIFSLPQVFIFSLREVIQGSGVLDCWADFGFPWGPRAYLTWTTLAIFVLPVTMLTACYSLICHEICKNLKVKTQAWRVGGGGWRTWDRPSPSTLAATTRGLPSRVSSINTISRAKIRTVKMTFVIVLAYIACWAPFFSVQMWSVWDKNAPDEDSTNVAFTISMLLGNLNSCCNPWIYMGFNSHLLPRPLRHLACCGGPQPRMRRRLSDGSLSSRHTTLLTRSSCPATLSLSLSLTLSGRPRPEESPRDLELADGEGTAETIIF
The test can be described thus: Agonist activity at human V1b receptor expressed in CHO cells assessed as calcium mobilization measured after 30 mins by Fluo-4-AM dye based FLIPR assay. The class given is cell-based.

The species entered for test [4] is Homo sapiens. The test can be described thus: Selectivity ratio of EC50 for human V1a receptor to EC50 for human OTR.
For test [5], the species on record is Homo sapiens. The test can be described thus: Selectivity ratio of EC50 for human V1b receptor to EC50 for human OTR.

pEC50: −log10 of the molar value. Numbered stars: 1 amine (or outer) side, 2 acyl side, 3 side chain; on linkers, the order of the positions; unused ones are H or OH. Bridge positions count the residues as written; N and C are the ends. Square brackets hold non-standard residues; d marks the D form. Peptide text beside a SMILES is read from it. Hyp = O=C(O)[C@@H]1C[C@@H](O)CN1; tBuAla = CC(C)(C)C[C@H](N)C(=O)O; Suc = O=C(CCC(=O)[*:2])[*:1]; X1 = O=C(CCC[*:2])[*:1]; Dap = NC[C@H](N)C(=O)O; azaGly = NNC(=O)O; Mpa = O=C(O)CCS

What is called pEC50 is −log10 of the EC50, conventionally taken in molar units. With `CC[C@H](C)[C@@H]1NC(=O)[C@H](Cc2ccc(O)cc2)NC(=O)CCCSC[C@@H](C(=O)N2CCC[C@H]2C(=O)N[C@@H](CC(C)C)C(=O)NCC(N)=O)NC(=O)[C@H](CC(N)=O)NC(=O)[C@H](CCC(N)=O)NC1=O` (YIQNCPLG-NH2; linker N-5 via X1), the pEC50 was 11.17 in test [1], 7.35 in test [2] and 8.19 in test [3]. Also, the Ratio EC50 amounted to 6700 in test [4] and 970 in test [5].
The like results for `CC[C@H](C)[C@@H]1NC(=O)[C@H](Cc2ccc(O)cc2)NC(=O)CCCSC[C@@H](C(=O)N2CCC[C@H]2C(=O)N[C@@H](CC(C)(C)C)C(=O)NCC(N)=O)NC(=O)[C@H](CC(N)=O)NC(=O)[C@H](CCC(N)=O)NC1=O` (YIQNCP[tBuAla]G-NH2; linker N-5 via X1) were, in that order, 11.19, under 7.00, under 7.00, over 10000 and over 10000.
The matching figures for `CC[C@H](C)[C@@H]1NC(=O)[C@H](Cc2ccc(O)cc2)NC(=O)CCCSC[C@@H](C(=O)N2C[C@H](O)C[C@H]2C(=O)N[C@@H](CC(C)C)C(=O)NCC(N)=O)NC(=O)[C@H](CC(N)=O)NC(=O)[C@H](CCC(N)=O)NC1=O` (YIQNC[Hyp]LG-NH2; linker N-5 via X1): 11.26, under 7.00, under 7.00, over 10000 and over 10000.
The matching figures for `CC[C@H](C)[C@@H]1NC(=O)[C@H](Cc2ccc(O)cc2)NC(=O)CCCSC[C@@H](C(=O)N2C[C@H](O)C[C@H]2C(=O)N[C@@H](CC(C)(C)C)C(=O)NCC(N)=O)NC(=O)[C@H](CC(N)=O)NC(=O)[C@H](CCC(N)=O)NC1=O` (YIQNC[Hyp][tBuAla]G-NH2; linker N-5 via X1): 11.14, under 7.00, under 7.00, over 10000 and over 10000.
Regarding `CC[C@H](C)[C@@H]1NC(=O)[C@H](Cc2ccc(O)cc2)NC(=O)CCC(=O)NC[C@@H](C(=O)N2CCC[C@H]2C(=O)N[C@@H](CC(C)C)C(=O)NCC(N)=O)NC(=O)[C@H](CC(N)=O)NC(=O)[C@H](CCC(N)=O)NC1=O` (YIQN[Dap]PLG-NH2; linker N-5 via Suc), the values for the negative logarithm of the EC50 (pEC50) in test [1], in test [2] and in test [3] were 9.92, under 7.00 and under 7.00, respectively. Further, the Ratio EC50 in test [4] and in test [5] was over 100 each time.
Take `CC[C@H](C)[C@@H]1NC(=O)[C@H](Cc2ccc(O)cc2)NC(=O)CCC(=O)NC[C@@H](C(=O)N2CCC[C@H]2C(=O)N[C@@H](CC(C)(C)C)C(=O)NCC(N)=O)NC(=O)[C@H](CC(N)=O)NC(=O)[C@H](CCC(N)=O)NC1=O` (YIQN[Dap]P[tBuAla]G-NH2; linker N-5 via Suc): the pEC50 was 9.59 in test [1], under 7.00 in test [2] and under 7.00 in test [3]. Further, the Ratio EC50 in test [4] and in test [5] was over 100 each time.
`CC[C@H](C)[C@@H]1NC(=O)[C@H](Cc2ccc(O)cc2)NC(=O)CCC(=O)NC[C@@H](C(=O)N2C[C@H](O)C[C@H]2C(=O)N[C@@H](CC(C)C)C(=O)NCC(N)=O)NC(=O)[C@H](CC(N)=O)NC(=O)[C@H](CCC(N)=O)NC1=O` (YIQN[Dap][Hyp]LG-NH2; linker N-5 via Suc): the figures for the pEC50 in test [1], in test [2] and in test [3] were 10.89, under 7.00 and under 7.00, respectively. Also, the Ratio EC50 in test [4] and in test [5] was over 1000 throughout.
In the case of `CC[C@H](C)[C@@H]1NC(=O)[C@H](Cc2ccc(O)cc2)NC(=O)CCC(=O)NC[C@@H](C(=O)N2C[C@H](O)C[C@H]2C(=O)N[C@@H](CC(C)C)C(=O)NNC(N)=O)NC(=O)[C@H](CC(N)=O)NC(=O)[C@H](CCC(N)=O)NC1=O` (YIQN[Dap][Hyp]L[azaGly]-NH2; linker N-5 via Suc), the pEC50 in test [1] is 10.51; in test [2], under 7.00; in test [3], under 7.00. Moreover, the Ratio EC50 in test [4] and in test [5] was over 1000 in each case.
Take `CC[C@H](C)[C@@H]1NC(=O)[C@H](Cc2ccccc2)NC(=O)CCSSC[C@@H](C(=O)N2CCC[C@H]2C(=O)N[C@@H](CC(C)C)C(=O)NCC(N)=O)NC(=O)[C@H](CC(N)=O)NC(=O)[C@H](CCC(N)=O)NC1=O` ([Mpa]FIQNCPLG-NH2; disulfide 1-6): the pEC50 in test [1] is 9.72; in test [2], under 7.00; in test [3], under 7.00. In addition, the Ratio EC50 in test [4] and in test [5] was over 100 in each case.
With `CC[C@H](C)[C@@H]1NC(=O)[C@H](CC(C)C)NC(=O)CCSSC[C@@H](C(=O)N2CCC[C@H]2C(=O)N[C@@H](CC(C)C)C(=O)NCC(N)=O)NC(=O)[C@H](CC(N)=O)NC(=O)[C@H](CCC(N)=O)NC1=O` ([Mpa]LIQNCPLG-NH2; disulfide 1-6), the pEC50 in test [1] is 8.44; in test [2] it was under 7.00; in test [3], under 7.00. The Ratio EC50 in test [4] and in test [5] was over 10 throughout.
For the compound `CC(C)C[C@H](NC(=O)[C@@H]1CCCN1C(=O)[C@@H]1CSSCCC(=O)N[C@@H](Cc2ccc(O)cc2)C(=O)N[C@@H](C)C(=O)N[C@@H](CCC(N)=O)C(=O)N[C@@H](CC(N)=O)C(=O)N1)C(=O)NCC(N)=O` ([Mpa]YAQNCPLG-NH2; disulfide 1-6), the pEC50 is 8.36 in test [1], under 7.00 in test [2] and under 7.00 in test [3]. The Ratio EC50 in test [4] and in test [5] was over 10 each time.
As to `CC(C)C[C@H](NC(=O)[C@@H]1CCCN1C(=O)[C@@H]1CSSCCC(=O)N[C@@H](Cc2ccc(O)cc2)C(=O)N[C@@H](Cc2ccccc2)C(=O)N[C@@H](CCC(N)=O)C(=O)N[C@@H](CC(N)=O)C(=O)N1)C(=O)NCC(N)=O` ([Mpa]YFQNCPLG-NH2; disulfide 1-6), the pEC50 was 9.96 in test [1], under 7.00 in test [2] and 9.37 in test [3]. For the same compound, the Ratio EC50 in test [4] was over 100; in test [5], 3.9.
As to `CC[C@H](C)[C@@H]1NC(=O)[C@H](Cc2ccc(O)cc2)NC(=O)CCSSC[C@@H](C(=O)N2CCC[C@H]2C(=O)N[C@@H](CC(C)C)C(=O)NCC(N)=O)NC(=O)[C@H](CC(N)=O)NC(=O)[C@H](C)NC1=O` ([Mpa]YIANCPLG-NH2; disulfide 1-6), the pEC50 was 9.62 in test [1], under 7.00 in test [2] and 7.16 in test [3]. Besides, the results for the Ratio EC50 in test [4] and in test [5] were over 100 and 290, respectively.
For `CC[C@H](C)[C@@H]1NC(=O)[C@H](Cc2ccc(O)cc2)NC(=O)CCSSC[C@@H](C(=O)N2CCC[C@H]2C(=O)N[C@@H](CC(C)C)C(=O)NCC(N)=O)NC(=O)[C@H](CC(N)=O)NC(=O)[C@H](CCC(=O)O)NC1=O` ([Mpa]YIENCPLG-NH2; disulfide 1-6), the values for the negative logarithm of the EC50 (pEC50) in test [1], in test [2] and in test [3] were 8.29, under 7.00 and under 7.00, respectively. Also, the Ratio EC50 in test [4] and in test [5] was over 10 each time.
For `CC[C@H](C)[C@@H]1NC(=O)[C@H](Cc2ccc(O)cc2)NC(=O)CCSSC[C@@H](C(=O)N2CCC[C@H]2C(=O)N[C@@H](CC(C)C)C(=O)NCC(N)=O)NC(=O)[C@H](CC(N)=O)NC(=O)[C@H](Cc2ccccc2)NC1=O` ([Mpa]YIFNCPLG-NH2; disulfide 1-6), the pEC50 in test [1] is 7.66; in test [2], under 7.00; in test [3] it was under 7.00. Moreover, the Ratio EC50 in test [4] and in test [5] was over 4 in each case.
`CC[C@H](C)[C@@H]1NC(=O)[C@H](Cc2ccc(O)cc2)NC(=O)CCSSC[C@@H](C(=O)N2CCC[C@H]2C(=O)N[C@@H](CC(C)C)C(=O)NCC(N)=O)NC(=O)[C@H](CC(N)=O)NC(=O)[C@H](CC(C)C)NC1=O` ([Mpa]YILNCPLG-NH2; disulfide 1-6): the negative logarithm of the EC50 (pEC50) in test [1] was 9.11; in test [2], under 7.00; in test [3] it was 7.64. Further, the figures for the Ratio EC50 in test [4] and in test [5] were over 100 and 29, respectively.
Consider `CC[C@H](C)[C@@H]1NC(=O)[C@H](Cc2ccc(O)cc2)NC(=O)CCSSC[C@@H](C(=O)N2CCC[C@H]2C(=O)N[C@@H](CC(C)C)C(=O)NCC(N)=O)NC(=O)[C@H](C)NC(=O)[C@H](CCC(N)=O)NC1=O` ([Mpa]YIQACPLG-NH2; disulfide 1-6), for which the pEC50 in test [1] was 7.77; in test [2], under 7.00; in test [3], under 7.00. Moreover, the Ratio EC50 in test [4] and in test [5] was over 5 in each case.

For the origin of these results see ChEMBL document CHEMBL4017483, “Potent and selective oxytocin receptor agonists without disulfide bridges” (Bioorg Med Chem Lett, 2017).
